Test results published in patent US20030138374A1, “Image diagnosis probe based on substituted azobenzene or analogue thereof for disease attributable to amyloid accumulation and composition for image diagnosis containing the same” (priority 2000, published 2003).
Like-named read-outs stand apart in the source and are kept apart here.

Columns and labels:
amyloid β protein = target: T1, amyloid β protein (Homo sapiens, UniProt P05067); test: β structure recognition of amyloid β protein (thioflavin T fluorescence); format: binding; settings: for β structure recognition (%) at 1 µM: read-out: β Structure recognition (%); for β structure recognition (in words): comment on Table I
T1 construct: the amyloid β protein (purchased from Peptide Laboratory) was dissolved in a potassium phosphate buffer (pH7.4); purchased Peptide Laboratory
Protocol: (1) Method of Quantifying the Amyloid β Protein Having β Sheet Structure—method of Measuring of Recognition of β Structure in a Test Compound
Then, each 100 microliters of thioflavin T (which emits fluorescence depending on an extent of β structure of the amyloid β protein) dissolved in a glycine-NaOH buffer (pH 8.5) was added (final concentration 3 μM), and the fluorescence was immediately measured with a fluorescent microplate reader (manufactured by Molecular Device, Model fmax) at an excitation wavelength of 442 nm and a measurement wavelength of 485 nm. When the fluorescence of thioflavin alone was regarded as A, the fluorescence under the coexistence of the amyloid β protein and thioflavin T was regarded as B, and the fluorescence under the coexistence of the amyloid β protein, thioflavin T and a test compound was regarded as C, the recognition of β structure for the test compound was calculated by the following formula (unless otherwise indicated, the concentration of a test compound was 1 μM):
β structure recognition for test compound (%)={(B−C)/(B−A)}×100

[1] = Distribution coefficient between water/1-octanol; format: physicochemical; settings: 1-octanol / aqueous phase, pH 5
insulin = target: T2, insulin (Homo sapiens, UniProt P01308); test: Insulin β structure recognition (thioflavin T fluorescence); format: binding; settings: insulin 0.1 mg/ml with β structure; average of two measurements; read-out: Insulin β sheet structure recognition EC50
T2 construct: insulin (purchased from Sigma) was dissolved in deionized water; purchased Sigma
Text: (2)Method of Measuring Insulin β Structure Recognition
It is known that proteins having β sheet structure such as insulin, amylin, etc are present in the human body in addition to the amyloid β protein (Burket et al., Biochemistry, vol. 11, p. 2435-2439, 1972; Ashburn et al, Chemistry and Biology, vol. 3, p. 351-358, 1996). It is desirable that a probe for diagnosing diseases in which amyloid is accumulated, including Alzheimer's disease by recognizing the amyloid protein, has the higher affinity with the amyloid β protein and has the lower affinity with other proteins having β sheet structure. Then, the affinity of each compound to insulin having β structure was measured.
A method of quantifying β sheet structure of insulin in vitro was slightly modified to be used in the test of the present invention, with reference to the report by Klunk et al. (Journal of Histochemistry and Cytochemistry, vol.37, p.1237-1281, 1989). That is, insulin (purchased from Sigma) was dissolved in deionized water, adjusted to pH2 with hydrochloric acid, heated at 92° C. for 10 minutes, and cooled in a dry ice/ethanol cooling bath. Thereafter, heating at 92° C. for 3 minutes and cooling in a dry ice/ethanol cooling bath were repeated 7 or 8 times. This insulin solution was further diluted to 0.1 mg/ml with a phosphate buffer (pH 7.4) , and dispensed in a 96-well microplate at each volume of 50 microliters. A test compound dissolved in deionized water was dispensed at a volume of 50 microliters, and thiofravin T (emitting fluorescence depending on an extent of β structure) dissolved in a glycine-NaOH buffer (pH 8.5) was dispensed at each volume of 100 microliters, and then the fluorescent extent was measured with a fluorescent microplate reader (manufactured by Molecular Device, Model fmax) at an excitation wavelength of 442 nm and a measurement wavelength of 485 nm. When the fluorescence of thioflavin T alone was regarded as D, the fluorescence under the coexistence of insulin and thioflavin T was regarded as E, and the fluorescence under the coexistence of insulin, thioflavin T and a test compound was regarded as F, the insulin β structure recognition for the test compound was calculated by the following formula:
Insulin β structure recognition for test compound (%) ={(E−F)/(E−D)}×100
based on this value, by using the BSAS (Biological Statistical Analysis System) statistic program the 50% effective concentration (EC50) for recognizing an insulin β sheet structure for the test compound was obtained.

[2] = Distribution coefficient between water/1-octanol; format: physicochemical
Protocol: As an oily phase, 1-octanol was used and, as an aqueous phase, a phosphate buffer (pH 7.3) or ultra-pure water was used. A suitable amount of a test compound was dissolved in an oily phase or an aqueous phase, and both phases were placed in the same test tube, and shaken vigorously at room temperature for 30 minutes. After allowing to stand at room temperature over 1 hour, centrifugation at 2000 rpm for 10 minutes was carried out, followed by further standing at room temperature for 1 hour. The aqueous phase and the oily phase were sampled, respectively, and transferred to a 96-well microplate. By using a microplate reader (manufactured by Molecular Device, Model Spectramax 250), the absorbance was measured at a maximum absorbing wavelength for each test compound, and the concentration of the test compound was calculated from a calibration curve previously obtained. A distribution coefficient was calculated by the following formula. Distribution coefficient for test compound =(concentration of test compound in oily phase)/(concentration of test compound in aqueous phase) As the distribution coefficient becomes larger, it can be said that the blood-brain barrier permeability for the test compound is higher.

[3] = test compound 1 μM, thioflavin T 3 μM, average of duplicated experiments

T2 sequence (P01308 25-54 limits assumed, species assumed): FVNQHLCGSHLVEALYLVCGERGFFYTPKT
T2 sequence (P01308 90-110 limits assumed, species assumed): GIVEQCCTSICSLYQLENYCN
T1 sequence (P05067 672-711 limits assumed): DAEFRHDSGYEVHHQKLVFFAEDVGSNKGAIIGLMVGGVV

Structure (SMILES)	β structure recognition (%) at 1 µM (amyloid β protein; [3]) [%]	Distribution coefficient [1]	EC50 (insulin) [µM]	β structure recognition (in words) (amyloid β protein)	Distribution coefficient ([2]; 1-octanol / phosphate buffer (pH 7.3) or ultra-pure water)	Distribution coefficient (in words) ([2]; comment on Table I)	β Structure recognition (%) (amyloid β protein; [3])	β structure recognition (%) at 1 µM (amyloid β protein) [%]
O=C(O)c1cc(/N=N/c2ccc(-c3ccc(/N=N/c4ccc(O)c(C(=O)O)c4)cc3)cc2)ccc1O [Chrysamine G, reference compound]	66.8	9.7 (pH 5)	0.253					
CN(C)c1ccc(/C=C/c2cccc(/C=C/c3ccc(N(C)C)cc3)[n+]2C)cc1.[I-] [Compound N-039, N-[4-(2-{6-[4-(dimethylamino)styryl]-1-methylpiridinium-2-yl}vinyl)phenyl]-N-methylmethanamine]	97.7		0.113	highly recognize β structure	35	high distribution coefficients		
CCN(CC)c1ccc(/N=C/c2ccc(N(CC)CC)cc2O)cc1 [Compound N-058, 5-(diethylamino)-2-({[4-(diethylamino)phenyl]imino}methyl)phenol]			0.129	highly recognize β structure			93.6	
Nc1c(/N=N/c2ccc(-c3ccc(/N=N/c4cc(S(=O)(=O)O)c5ccccc5c4N)cc3)cc2)cc(S(=O)(=O)O)c2ccccc12 [Congo red, reference compound]	89.3		0.153					
CCN(CC)c1ccc(/N=N/c2ccc(Br)cn2)c(O)c1 [SA-147]	87.2		0.038	highly recognize β structure				
CN(C)c1ccc(/N=N/c2ccc(N=C=S)cc2)cc1 [SA-239, 4-((4-isothiocyanatphenyl)azo)-N,N-dimethylaniline]			0.12	highly recognize β structure				83.3
CN(C)c1ccc(/N=C2\C=CC(=O)c3ccccc32)cc1 [SA-244, Indophenol Blue]	96.9		0.449	highly recognize β structure				
